{"source": "patent US8629159B2", "about": "“Thiazolidinedione analogues” (Metabolic Solutions Development Company, LLC, priority 2006, dated 2014)", "key": {"[1]": {"system": "Male salt-sensitive Dahl rats", "test": "Fasting free fatty acids (FFA) and adiponectin in treated Dahl rats", "assay_type": "in vivo, rat", "conditions": "3 weeks treatment; 40 mg/kg compound 1, 20 mg/kg rosiglitazone", "experimental": "Doses of these compounds were chosen to produce the same metabolic effects in terms of reduction of triglycerides and elevation of adiponectin (Table E). Direct blood pressure (systolic and diastolic) and heart rate was also measured by telemetry (Tables F—H and FIG. 4)."}, "[2]": {"system": "Male salt-sensitive Dahl rats", "test": "Blood pressure (systolic and diastolic) and heart rate by telemetry in hypertensive Dahl rats", "assay_type": "in vivo, rat", "conditions": "24 hour average", "experimental": "Direct blood pressure (systolic and diastolic) and heart rate was also measured by telemetry (Tables F—H and FIG. 4). Data in Tables F—H and depicted in FIGS. 4A-4C are 24 hour averages for the last 4 days before the start of the daily oral gavage of treatments (−4, −3, −2, −1) and for the days 1-17 during the treatments shown."}, "[3]": {"conditions": "day 1 of treatment, rosiglitazone 20 mg/kg, compound 1 40 mg/kg"}, "[4]": {"conditions": "day 2 of treatment, rosiglitazone 20 mg/kg, compound 1 40 mg/kg"}, "[5]": {"conditions": "day 3 of treatment, rosiglitazone 20 mg/kg, compound 1 40 mg/kg"}, "[6]": {"conditions": "day 4 of treatment, rosiglitazone 20 mg/kg, compound 1 40 mg/kg"}, "[7]": {"conditions": "day 5 of treatment, rosiglitazone 20 mg/kg, compound 1 40 mg/kg"}, "[8]": {"conditions": "day 6 of treatment, rosiglitazone 20 mg/kg, compound 1 40 mg/kg"}, "[9]": {"conditions": "day 7 of treatment, rosiglitazone 20 mg/kg, compound 1 40 mg/kg"}, "[10]": {"conditions": "day 8 of treatment, rosiglitazone 20 mg/kg, compound 1 40 mg/kg"}, "[11]": {"conditions": "day 9 of treatment, rosiglitazone 20 mg/kg, compound 1 40 mg/kg"}, "[12]": {"conditions": "day 10 of treatment, rosiglitazone 20 mg/kg, compound 1 40 mg/kg"}, "[13]": {"conditions": "day 11 of treatment, rosiglitazone 20 mg/kg, compound 1 40 mg/kg"}, "[14]": {"conditions": "day 12 of treatment, rosiglitazone 20 mg/kg, compound 1 40 mg/kg"}, "[15]": {"conditions": "day 13 of treatment, rosiglitazone 20 mg/kg, compound 1 40 mg/kg"}, "[16]": {"conditions": "day 14 of treatment, rosiglitazone 20 mg/kg, compound 1 40 mg/kg"}, "[17]": {"conditions": "day 15 of treatment, rosiglitazone 20 mg/kg, compound 1 40 mg/kg"}, "[18]": {"conditions": "day 16 of treatment, rosiglitazone 20 mg/kg, compound 1 40 mg/kg"}, "[19]": {"conditions": "day 17 of treatment, rosiglitazone 20 mg/kg, compound 1 40 mg/kg"}, "[20]": {"conditions": "day −1, before start of treatment"}, "[21]": {"conditions": "day −2, before start of treatment"}, "[22]": {"conditions": "day −3, before start of treatment"}, "[23]": {"conditions": "day −4, before start of treatment"}}, "note": "Marks after values point to notes of the source that are not given here."}
{"smiles": "CN(CCOc1ccc(CC2SC(=O)NC2=O)cc1)c1ccccn1", "note": "(centres unmarked) [Rosiglitazone, reference compound]", "values": [{"measurement": "Adiponectin", "setting": "[1]", "value": "36*"}, {"measurement": "FFA", "setting": "[1]", "value": "0.77*"}, {"measurement": "Diastolic blood pressure measured by telemetry, Mean", "setting": "[2]; [3]", "value": 119}, {"measurement": "Heart rate measured by telemetry, Mean", "setting": "[2]; [3]", "value": 407, "unit": "bpm"}, {"measurement": "Diastolic blood pressure measured by telemetry, Mean", "setting": "[2]; [4]", "value": 121}, {"measurement": "Heart rate measured by telemetry, Mean", "setting": "[2]; [4]", "value": 402, "unit": "bpm"}, {"measurement": "Systolic blood pressure measured by telemetry, Mean", "setting": "[2]; [4]", "value": 172}, {"measurement": "Diastolic blood pressure measured by telemetry, Mean", "setting": "[2]; [5]", "value": 123}, {"measurement": "Heart rate measured by telemetry, Mean", "setting": "[2]; [5]", "value": 405, "unit": "bpm"}, {"measurement": "Systolic blood pressure measured by telemetry, Mean", "setting": "[2]; [5]", "value": 175}, {"measurement": "Diastolic blood pressure measured by telemetry, Mean", "setting": "[2]; [6]", "value": 124}, {"measurement": "Heart rate measured by telemetry, Mean", "setting": "[2]; [6]", "value": 399, "unit": "bpm"}, {"measurement": "Systolic blood pressure measured by telemetry, Mean", "setting": "[2]; [6]", "value": 177}, {"measurement": "Diastolic blood pressure measured by telemetry, Mean", "setting": "[2]; [7]", "value": 126}, {"measurement": "Heart rate measured by telemetry, Mean", "setting": "[2]; [7]", "value": 398, "unit": "bpm"}, {"measurement": "Systolic blood pressure measured by telemetry, Mean", "setting": "[2]; [7]", "value": 179}, {"measurement": "Diastolic blood pressure measured by telemetry, Mean", "setting": "[2]; [8]", "value": 126}, {"measurement": "Heart rate measured by telemetry, Mean", "setting": "[2]; [8]", "value": 398, "unit": "bpm"}, {"measurement": "Systolic blood pressure measured by telemetry, Mean", "setting": "[2]; [8]", "value": 179}, {"measurement": "Diastolic blood pressure measured by telemetry, Mean", "setting": "[2]; [9]", "value": 131}, {"measurement": "Heart rate measured by telemetry, Mean", "setting": "[2]; [9]", "value": 393, "unit": "bpm"}, {"measurement": "Systolic blood pressure measured by telemetry, Mean", "setting": "[2]; [9]", "value": 184}, {"measurement": "Diastolic blood pressure measured by telemetry, Mean", "setting": "[2]; [10]", "value": 135}, {"measurement": "Heart rate measured by telemetry, Mean", "setting": "[2]; [10]", "value": 401, "unit": "bpm"}, {"measurement": "Systolic blood pressure measured by telemetry, Mean", "setting": "[2]; [10]", "value": 188}, {"measurement": "Diastolic blood pressure measured by telemetry, Mean", "setting": "[2]; [11]", "value": 136}, {"measurement": "Heart rate measured by telemetry, Mean", "setting": "[2]; [11]", "value": 398, "unit": "bpm"}, {"measurement": "Systolic blood pressure measured by telemetry, Mean", "setting": "[2]; [11]", "value": 190}, {"measurement": "Heart rate measured by telemetry, Mean", "setting": "[2]; [12]", "value": 398, "unit": "bpm"}, {"measurement": "Systolic blood pressure measured by telemetry, Mean", "setting": "[2]; [12]", "value": 192}, {"measurement": "Heart rate measured by telemetry, Mean", "setting": "[2]; [13]", "value": 399, "unit": "bpm"}, {"measurement": "Systolic blood pressure measured by telemetry, Mean", "setting": "[2]; [13]", "value": 194}, {"measurement": "Heart rate measured by telemetry, Mean", "setting": "[2]; [14]", "value": 399, "unit": "bpm"}, {"measurement": "Systolic blood pressure measured by telemetry, Mean", "setting": "[2]; [14]", "value": 196}, {"measurement": "Heart rate measured by telemetry, Mean", "setting": "[2]; [15]", "value": 395, "unit": "bpm"}, {"measurement": "Systolic blood pressure measured by telemetry, Mean", "setting": "[2]; [15]", "value": 196}, {"measurement": "Heart rate measured by telemetry, Mean", "setting": "[2]; [16]", "value": 393, "unit": "bpm"}, {"measurement": "Systolic blood pressure measured by telemetry, Mean", "setting": "[2]; [16]", "value": 198}, {"measurement": "Heart rate measured by telemetry, Mean", "setting": "[2]; [17]", "value": 398, "unit": "bpm"}, {"measurement": "Systolic blood pressure measured by telemetry, Mean", "setting": "[2]; [17]", "value": 202}, {"measurement": "Heart rate measured by telemetry, Mean", "setting": "[2]; [18]", "value": 401, "unit": "bpm"}, {"measurement": "Systolic blood pressure measured by telemetry, Mean", "setting": "[2]; [18]", "value": 204}, {"measurement": "Heart rate measured by telemetry, Mean", "setting": "[2]; [19]", "value": 402, "unit": "bpm"}, {"measurement": "Systolic blood pressure measured by telemetry, Mean", "setting": "[2]; [19]", "value": 204}, {"measurement": "Diastolic blood pressure measured by telemetry, Mean", "setting": "[2]; [20]", "value": 124}, {"measurement": "Heart rate measured by telemetry, Mean", "setting": "[2]; [20]", "value": 395, "unit": "bpm"}, {"measurement": "Systolic blood pressure measured by telemetry, Mean", "setting": "[2]; [20]", "value": 173}, {"measurement": "Diastolic blood pressure measured by telemetry, Mean", "setting": "[2]; [21]", "value": 127}, {"measurement": "Heart rate measured by telemetry, Mean", "setting": "[2]; [21]", "value": 394, "unit": "bpm"}, {"measurement": "Systolic blood pressure measured by telemetry, Mean", "setting": "[2]; [21]", "value": 176}, {"measurement": "Diastolic blood pressure measured by telemetry, Mean", "setting": "[2]; [22]", "value": 124}, {"measurement": "Heart rate measured by telemetry, Mean", "setting": "[2]; [22]", "value": 400, "unit": "bpm"}, {"measurement": "Systolic blood pressure measured by telemetry, Mean", "setting": "[2]; [22]", "value": 171}, {"measurement": "Diastolic blood pressure measured by telemetry, Mean", "setting": "[2]; [23]", "value": 124}, {"measurement": "Heart rate measured by telemetry, Mean", "setting": "[2]; [23]", "value": 403, "unit": "bpm"}, {"measurement": "Systolic blood pressure measured by telemetry, Mean", "setting": "[2]; [23]", "value": 174}]}
